ChEMBL document CHEMBL4004838, “Design and synthesis of novel phenyl -1, 4-beta-carboline-hybrid molecules as potential anticancer agents” (Eur J Med Chem, 2017)

Columns and labels:
Format in all cases: functional
M14 = experiment: Growth inhibition of human M14 cells assessed as cell growth at 0.1 uM incubated for 48 hrs by sulforhodamine B assay relative to control; settings: M14, 48 h, read-out: Activity
MCF7 = experiment: Growth inhibition of human MCF7 cells assessed as cell growth at 0.01 uM incubated for 48 hrs by sulforhodamine B assay relative to control; settings: MCF7, 48 h, read-out: Activity
NCI-H322M [1] = experiment: Growth inhibition of human NCI-H322M cells assessed as cell growth at 1 uM incubated for 48 hrs by sulforhodamine B assay relative to control; settings: read-out: Activity
HOP-62 [2] = experiment: Growth inhibition of human HOP62 cells assessed as cell growth at 0.01 uM incubated for 48 hrs by sulforhodamine B assay relative to control; settings: HOP-62, 48 h, read-out: Activity
MDA-MB-435 = experiment: Growth inhibition of human MDA-MB-435 cells incubated for 48 hrs by sulforhodamine B assay; settings: MDA-MB-435, 48 h
IGROV-1 = experiment: Growth inhibition of human IGROV1 cells assessed as cell growth at 0.01 uM incubated for 48 hrs by sulforhodamine B assay relative to control; settings: IGROV-1, 48 h, read-out: Activity
HOP-62 [3] = experiment: Growth inhibition of human HOP62 cells assessed as cell growth at 1 uM incubated for 48 hrs by sulforhodamine B assay relative to control; settings: HOP-62, 48 h, read-out: Activity
Hs-578T = experiment: Growth inhibition of human Hs 578T cells assessed as cell growth at 0.1 uM incubated for 48 hrs by sulforhodamine B assay relative to control; settings: read-out: Activity
PC-3 = experiment: Growth inhibition of human PC3 cells assessed as cell growth at 0.01 uM incubated for 48 hrs by sulforhodamine B assay relative to control; settings: PC-3, 48 h, read-out: Activity
UACC-257 [4] = experiment: Growth inhibition of human UACC257 cells assessed as cell growth at 0.01 uM incubated for 48 hrs by sulforhodamine B assay relative to control; settings: UACC-257, 48 h, read-out: Activity
SNB-75 [5] = experiment: Growth inhibition of human SNB75 cells assessed as cell growth at 1 uM incubated for 48 hrs by sulforhodamine B assay relative to control; settings: SNB-75, 48 h, read-out: Activity
OVCAR-5 = experiment: Growth inhibition of human OVCAR5 cells assessed as cell growth at 0.01 uM incubated for 48 hrs by sulforhodamine B assay relative to control; settings: OVCAR-5, 48 h, read-out: Activity
HCC 2998 [6] = experiment: Growth inhibition of human HCC2998 cells incubated for 48 hrs by sulforhodamine B assay; settings: HCC 2998, 48 h
HL-60(TB) = experiment: Growth inhibition of human HL-60(TB) cells assessed as cell growth at 1 uM incubated for 48 hrs by sulforhodamine B assay relative to control; settings: HL-60, 48 h, read-out: Activity
CAKI-1 = experiment: Growth inhibition of human Caki1 cells assessed as cell growth at 0.1 uM incubated for 48 hrs by sulforhodamine B assay relative to control; settings: CAKI-1, 48 h, read-out: Activity
SNB-75 [7] = experiment: Growth inhibition of human SNB75 cells incubated for 48 hrs by sulforhodamine B assay; settings: SNB-75, 48 h
MOLT-4 = experiment: Growth inhibition of human MOLT4 cells assessed as cell growth at 0.1 uM incubated for 48 hrs by sulforhodamine B assay relative to control; settings: MOLT-4, 48 h, read-out: Activity
HCT-15 = experiment: Growth inhibition of human HCT15 cells assessed as cell growth at 0.1 uM incubated for 48 hrs by sulforhodamine B assay relative to control; settings: HCT-15, 48 h, read-out: Activity
UACC-62 = experiment: Growth inhibition of human UACC62 cells assessed as cell growth at 0.1 uM incubated for 48 hrs by sulforhodamine B assay relative to control; settings: UACC-62, 48 h, read-out: Activity
NCI-H522 = experiment: Growth inhibition of human NCI-H522 cells assessed as cell growth at 0.01 uM incubated for 48 hrs by sulforhodamine B assay relative to control; settings: NCI-H522, 48 h, read-out: Activity
MDA-MB-468 [8] = experiment: Growth inhibition of human MDA-MB-468 cells incubated for 48 hrs by sulforhodamine B assay; settings: MDA-MB-468, 48 h
SF-539 = experiment: Growth inhibition of human SF539 cells assessed as cell growth at 1 uM incubated for 48 hrs by sulforhodamine B assay relative to control; settings: SF-539, 48 h, read-out: Activity
HCC 2998 [9] = experiment: Growth inhibition of human HCC2998 cells assessed as cell growth at 1 uM incubated for 48 hrs by sulforhodamine B assay relative to control; settings: HCC 2998, 48 h, read-out: Activity
UACC-257 [10] = experiment: Growth inhibition of human UACC257 cells assessed as cell growth at 1 uM incubated for 48 hrs by sulforhodamine B assay relative to control; settings: UACC-257, 48 h, read-out: Activity
SR = experiment: Growth inhibition of human SR cells assessed as cell growth at 0.01 uM incubated for 48 hrs by sulforhodamine B assay relative to control; settings: read-out: Activity
NCI-H322M [11] = experiment: Growth inhibition of human NCI-H322M cells incubated for 48 hrs by sulforhodamine B assay
A498 = experiment: Growth inhibition of human A498 cells assessed as cell growth at 100 uM incubated for 48 hrs by sulforhodamine B assay relative to control; settings: A498, 48 h, read-out: Activity
MDA-MB-231 = experiment: Growth inhibition of human MDA-MB-231 cells assessed as cell growth at 100 uM incubated for 48 hrs by sulforhodamine B assay relative to control; settings: MDA-MB-231, 48 h, read-out: Activity
DU-145 = experiment: Growth inhibition of human DU145 cells assessed as cell growth at 100 uM incubated for 48 hrs by sulforhodamine B assay relative to control; settings: DU-145, 48 h, read-out: Activity
MDA-MB-468 [12] = experiment: Growth inhibition of human MDA-MB-468 cells assessed as cell growth at 0.1 uM incubated for 48 hrs by sulforhodamine B assay relative to control; settings: MDA-MB-468, 48 h, read-out: Activity
SF-295 = experiment: Growth inhibition of human SF295 cells assessed as cell growth at 0.1 uM incubated for 48 hrs by sulforhodamine B assay relative to control; settings: SF-295, 48 h, read-out: Activity
[13] = read-out: LC50 (the source's name)
[14] = read-out: pLC50 (the source's name) (converted)

## c1ccc2[nH]c(-c3ccc(-c4nccc5c4[nH]c4ccccc45)cc3)nc2c1
M14
  growth at 0.1 µM: 98%
MCF7
  growth at 0.01 µM: 91%
NCI-H322M [1]
  growth at 1 µM: 96%
HOP-62 [2]
  growth at 0.01 µM: 86%
MDA-MB-435; read-out: GI50
  GI50: 1.92 µM
MDA-MB-435; [13]
  CC50: 9.51 µM
MDA-MB-435; read-out: TGI
  TGI: 4.27 µM
MDA-MB-435; read-out: pGI50 (converted)
  GI50: 1.91 µM
MDA-MB-435; [14]
  CC50: 9.55 µM
MDA-MB-435; read-out: pTGI (converted)
  TGI: 4.27 µM
IGROV-1
  growth at 0.01 µM: 99%
HOP-62 [3]
  growth at 1 µM: 88%
Hs-578T
  growth at 0.1 µM: 100%
PC-3
  growth at 0.01 µM: 98%
UACC-257 [4]
  growth at 0.01 µM: 93%
SNB-75 [5]
  growth at 1 µM: 74%
OVCAR-5
  growth at 0.01 µM: 94%
HCC 2998 [6]; read-out: GI50
  GI50: 3.96 µM
HCC 2998 [6]; read-out: LC50
  LC50: 5.31 µM
HCC 2998 [6]; read-out: pGI50 (converted)
  GI50: 3.98 µM
HCC 2998 [6]; read-out: pLC50 (converted)
  LC50: 53.7 µM
HCC 2998 [6]; read-out: pTGI (converted)
  TGI: 15.8 µM
HL-60(TB)
  growth at 1 µM: 94%
CAKI-1
  growth at 0.1 µM: 96%
SNB-75 [7]; read-out: GI50
  GI50: 1.57 µM
SNB-75 [7]; [13]
  CC50: 1.19 µM
SNB-75 [7]; read-out: TGI
  TGI: 4.08 µM
SNB-75 [7]; read-out: pGI50 (converted)
  GI50: 1.58 µM
SNB-75 [7]; [14]
  CC50: 12 µM
SNB-75 [7]; read-out: pTGI (converted)
  TGI: 4.07 µM
MOLT-4
  growth at 0.1 µM: 98%
HCT-15
  growth at 0.1 µM: 97%
UACC-62
  growth at 0.1 µM: 91%
NCI-H522
  growth at 0.01 µM: 91%
MDA-MB-468 [8]; read-out: GI50
  GI50: 2.52 µM
MDA-MB-468 [8]; [13]
  CC50: 4.97 µM
MDA-MB-468 [8]; read-out: TGI
  TGI: 6.62 µM
MDA-MB-468 [8]; read-out: pGI50 (converted)
  GI50: 2.51 µM
MDA-MB-468 [8]; [14]
  CC50: 50.1 µM
MDA-MB-468 [8]; read-out: pTGI (converted)
  TGI: 6.61 µM
SF-539
  growth at 1 µM: 98%
HCC 2998 [9]
  growth at 1 µM: 96%
UACC-257 [10]
  growth at 1 µM: 96%
SR
  growth at 0.01 µM: 97%
NCI-H322M [11]; read-out: GI50
  GI50: 2.86 µM
NCI-H322M [11]; [13]
  CC50: 4.41 µM
NCI-H322M [11]; read-out: TGI
  TGI: 8.9 µM
NCI-H322M [11]; read-out: pGI50 (converted)
  GI50: 2.88 µM
NCI-H322M [11]; [14]
  CC50: 43.7 µM
NCI-H322M [11]; read-out: pTGI (converted)
  TGI: 8.91 µM
A498
  growth at 100 µM: 85%
MDA-MB-231
  growth at 100 µM: 54%
DU-145
  growth at 100 µM: 72%
MDA-MB-468 [12]
  growth at 0.1 µM: 99%
SF-295
  growth at 0.1 µM: 97%
